Measurements published in BindingDB's records for doi:10.1021/acs.jmedchem.5b00354 (Florida Atlantic University, 2015).

Experiment: Inhibition of ADAM17 in human A549 cells assessed as potentiation of gefitinib-mediated inhibition of cell viability by measuring gefitinib IC50 at 40 uM incubated for 1 hr followed by gefitinib addition measured after 72 hrs by CellTiter-Glo assay (Rvb = 8.4 microM)

Compound: O=C1NC[C@@H](Cc2ccc(O)cc2)N(C[C@@H]2CCCN2C[C@@H](Cc2ccc3ccccc3c2)N2C[C@H](Cc3ccc(O)cc3)N(CCC34CC5CC(CC(C5)C3)C4)C(=O)C2=O)C1=O
- IC50: 1.9 µM
